Measurements: US10618903B2, “Heteroaryl substituted aminopyridine compounds” (BRISTOL-MYERS SQUIBB COMPANY, priority 2015, dated 2020)

Experiments:
[1] = molecular target: IRAK4 (Homo sapiens (Human), UniProt Q9NWZ3); experiment: IRAK4 Inhibition Assay; format: biochemical; settings: ATP 500 μM; IRAK4 0.6 nM
Outline: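 Enzyme 0.6 nM, ATP 500 μM, FL-peptide 1.5 μM, DMSO 1.6%; HEPES pH 7.2/MgCl2/Brij 35/DTT buffer. RT, 60 min, EDTA stop. Mobility-shift product/substrate ratio; % inhib vs no-enzyme and vehicle controls.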

[2] = tested on: IL-6 levels in human whole blood stimulated with a TLR2 agonist; experiment: IRAK4 Whole Blood Assay (lipoteichoic acid/TLR2-stimulated IL-6); format: cell-based; settings: lipoteichoic acid 10 μg/mL, IL-6 readout
Experimental: Human whole blood containing the anti-coagulant ACD-A was plated in 384-well plate (25 μL/well) and incubated with compounds for 60 minutes at 37° C. in a 5% CO2 incubator. The blood was stimulated with a TLR2 agonist, 10 μg/mL final concentration of lipoteichoic acid (Invivogen, San Diego, Calif.) in 25 μL RPMI (Gibco) for 5 hours in a 5% CO2 incubator. At the end of the incubation, plates were centrifuged at 2300 rpm for 5 minutes. Supernatants were harvested and analyzed for IL-6 levels by Flow Cytometry beads assay (BD Biosciences, San Jose, Calif.).

IRAK4, sequence (Q9NWZ3 whole entry): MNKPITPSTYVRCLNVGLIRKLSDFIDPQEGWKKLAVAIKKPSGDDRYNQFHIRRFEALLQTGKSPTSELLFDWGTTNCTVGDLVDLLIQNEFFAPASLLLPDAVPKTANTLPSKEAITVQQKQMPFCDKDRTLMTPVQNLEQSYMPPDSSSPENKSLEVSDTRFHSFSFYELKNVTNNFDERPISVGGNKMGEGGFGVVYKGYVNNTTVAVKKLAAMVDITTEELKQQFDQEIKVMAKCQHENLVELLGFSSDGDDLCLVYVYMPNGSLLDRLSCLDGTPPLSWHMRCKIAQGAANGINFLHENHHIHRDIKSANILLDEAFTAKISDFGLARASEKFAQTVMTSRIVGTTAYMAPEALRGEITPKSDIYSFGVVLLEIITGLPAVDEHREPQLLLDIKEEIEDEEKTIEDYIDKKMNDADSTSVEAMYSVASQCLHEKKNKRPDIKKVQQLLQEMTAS

Compound	IC50 [1]	EC50 ([2]; Homo sapiens)	EC50 [2]
CC(C)(O)[C@H](F)CNC(=O)c1cnc(-c2cnc3cc(Cl)cnn23)cc1Nc1cnn(C2CCC2)c1 [Example 285, (R)-6-(7-chloroimidazo[1,2-b]pyridazin-3-yl)-4-((1-cyclobutyl-1H-pyrazol-4-yl)amino)-N-(2-fluoro-3-hydroxy-3-methylbutyl)nicotinamide]	3 nM	370 nM	
CC(C)Nc1cc(-c2cnc3cc(C#N)cnn23)ncc1C(=O)NCCCn1ccnc1 [Example 214, N-(3-(1H-imidazol-1-yl)propyl)-6-(7-cyanoimidazo[1,2-b]pyridazin-3-yl)-4-(isopropylamino)nicotinamide]	11 nM	480 nM	
CC(C)(O)[C@H](F)CNC(=O)c1cnc(-c2cnc3cc(C#N)cnn23)cc1Nc1cnn(CC(F)(F)F)c1 [Example 276, (R)-6-(7-cyanoimidazo[1,2-b]pyridazin-3-yl)-N-(2-fluoro-3-hydroxy-3-methylbutyl)-4-((1-(2,2,2-trifluoroethyl)-1H-pyrazol-4-yl)amino)nicotinamide]	2 nM	80 nM	
CC(C)(O)[C@H](F)CNC(=O)c1cnc(-c2cnc3cc(Cl)cnn23)cc1Nc1cnn(CCCF)c1 [Example 283, (R)-6-(7-chloroimidazo[1,2-b]pyridazin-3-yl)-N-(2-fluoro-3-hydroxy-3-methylbutyl)-4-((1-(3-fluoropropyl)-1H-pyrazol-4-yl)amino)nicotinamide]	2 nM	340 nM	
CC(C)(O)[C@H](F)CNC(=O)c1cnc(-c2cnc3cc(C#N)cnn23)cc1Nc1cnn(C(F)F)c1 [Example 273, (R)-6-(7-cyanoimidazo[1,2-b]pyridazin-3-yl)-4-((1-(difluoromethyl)-1H-pyrazol-4-yl)amino)-N-(2-fluoro-3-hydroxy-3-methylbutyl)nicotinamide]	7 nM	380 nM	
Cn1cc(Nc2cc(-c3cnc4cc(Cl)cnn34)ncc2C(=O)NC[C@@H](F)C(C)(C)O)cn1 [Example 271, (R)-6-(7-chloroimidazo[1,2-b]pyridazin-3-yl)-N-(2-fluoro-3-hydroxy-3-methylbutyl)-4-((1-methyl-1H-pyrazol-4-yl)amino)nicotinamide]	4 nM	170 nM	
CC[C@@H](C)Nc1cc(-c2cnc3cc(Cl)cnn23)ncc1C(=O)NC[C@@H](F)C(C)(C)O [Example 202, 4-(((R)-sec-butyl)amino)-6-(7-chloroimidazo[1,2-b]pyridazin-3-yl)-N—((R)-2-fluoro-3-hydroxy-3-methylbutyl)nicotinamide]	2 nM	750 nM	
CC(C)(O)[C@H](F)CNC(=O)c1cnc(-c2cnn3cc(Cl)cnc23)cc1NC1CCCOC1 (single isomer, unassigned) [Example 4]	13 nM		680 nM
CC(C)(O)[C@H](F)CNC(=O)c1cnc(-c2cnn3cc(C#N)cnc23)cc1N[C@@H]1CCN(c2ncc(F)cn2)C1 [Example 109, 6-(6-cyanopyrazolo[1,5-a]pyrimidin-3-yl)-N—((R)-2-fluoro-3-hydroxy-3-methylbutyl)-4-(((R)-1-(5-fluoropyrimidin-2-yl)pyrrolidin-3-yl)amino)nicotinamide]	5 nM	440 nM	
CC(C)(O)[C@H](F)CNC(=O)c1cnc(-c2cnn3cc(C#N)cnc23)cc1NC1COC1 [Example 99, (R)-6-(6-cyanopyrazolo[1,5-a]pyrimidin-3-yl)-N-(2-fluoro-3-hydroxy-3-methylbutyl)-4-(oxetan-3-ylamino) nicotinamide]	4 nM	600 nM	
CC(C)Nc1cc(-c2ccc3cc(C#N)cnn23)ncc1C(=O)NC[C@@H](F)C(C)(C)O [Example 193, (R)-6-(3-cyanopyrrolo[1,2-b]pyridazin-7-yl)-N-(2-fluoro-3-hydroxy-3-methylbutyl)-4-(isopropylamino)nicotinamide]	4 nM	260 nM	

Continued by falling IC50 [1], values first:

IC50 [1]	EC50 ([2]; Homo sapiens)	EC50 [2]	Compound
14 nM	570 nM		C[C@@H](CF)Nc1cc(-c2cnc3cc(C#N)cnn23)ncc1C(=O)NCCC(C)(C)O [Example 221, (S)-6-(7-cyanoimidazo[1,2-b]pyridazin-3-yl)-4-((1-fluoropropan-2-yl)amino)-N-(3-hydroxy-3-methylbutyl)nicotinamide]
13 nM	810 nM		COC(=O)N[C@H]1CC[C@H](NC(=O)c2cnc(-c3cnc4cc(C#N)cnn34)cc2NC(C)C)CC1 [Example 223, methyl((1r,4r)-4-(6-(7-cyanoimidazo[1,2-b]pyridazin-3-yl)-4-(isopropylamino)nicotinamido)cyclohexyl)carbamate]
8 nM	1150 nM		CC(C)(O)[C@H](F)CNC(=O)c1cnc(-c2cnn3cc(Cl)cnc23)cc1NC1COCC1(F)F (single isomer, unassigned) [Example 18]
7 nM	570 nM		COC(=O)N[C@H]1CC[C@H](NC(=O)c2cnc(-c3cnc4cc(C#N)cnn34)cc2NC2(C)CC2)CC1 [Example 224, methyl ((1r,4r)-4-(6-(7-cyanoimidazo[1,2-b]pyridazin-3-yl)-4-((1-methylcyclopropyl)amino)nicotinamido)cyclohexyl)carbamate]
7 nM	1640 nM		CC(C)(O)[C@H](F)CNC(=O)c1cnc(-c2cnn3cc(C#N)cnc23)cc1N[C@@H](CO)Cc1ccccc1 [Example 101, 6-(6-cyanopyrazolo[1,5-a]pyrimidin-3-yl)-N—((R)-2-fluoro-3-hydroxy-3-methylbutyl)-4-(((R)-1-hydroxy-3-phenylpropan-2-yl)amino)nicotinamide]
7 nM		2530 nM	CC(C)Nc1cc(-c2cnc3cccnn23)ncc1C(=O)NC[C@@H](F)C(C)(C)O [Example 21, (R)—N-(2-fluoro-3-hydroxy-3-methylbutyl)-6-(imidazo[1,2-b]pyridazin-3-yl)-4-(isopropylamino)nicotinamide]
6 nM	470 nM		CO[C@H]1CC[C@H](Nc2cc(-c3cnn4cc(Cl)cnc34)ncc2C(=O)NC[C@@H](F)C(C)(C)O)CC1 [Example 165, 6-(6-chloropyrazolo[1,5-a]pyrimidin-3-yl)-N—((R)-2-fluoro-3-hydroxy-3-methylbutyl)-4-(((1r,4R)-4-methoxycyclohexyl)amino)nicotinamide]
6 nM	550 nM		CC(C)(O)[C@H](F)CNC(=O)c1cnc(-c2cnc3cc(C#N)cnn23)cc1NC1CCC(F)C1 (stereo partly drawn) [Example 208, 6-(7-cyanoimidazo[1,2-b]pyridazin-3-yl)-N—((R)-2-fluoro-3-hydroxy-3-methylbutyl)-4-((3-fluorocyclopentyl)amino)nicotinamide]
6 nM	810 nM		CC(F)CCNc1cc(-c2cnn3cc(Cl)cnc23)ncc1C(=O)NC[C@@H](F)C(C)(C)O (stereo partly drawn) [Example 160, 6-(6-chloropyrazolo[1,5-a]pyrimidin-3-yl)-N—((R)-2-fluoro-3-hydroxy-3-methylbutyl)-4-((3-fluorobutyl)amino)nicotinamide]
5 nM	890 nM		CC(C)Nc1cc(-c2cnc3cc(C#N)cnn23)ncc1C(=O)NCC(F)C1CC(C)OC(C)C1 (stereo not drawn) [Example 203, 6-(7-cyanoimidazo[1,2-b]pyridazin-3-yl)-N-(2-(2,6-dimethyltetrahydro-2H-pyran-4-yl)-2-fluoroethyl)-4-(isopropylamino)nicotinamide]
5 nM	720 nM		Cn1cc(Nc2cc(-c3cnn4cc(Cl)cnc34)ncc2C(=O)NCCC(C)(C)O)cn1 [Example 255, 6-(6-chloropyrazolo[1,5-a]pyrimidin-3-yl)-N-(3-hydroxy-3-methylbutyl)-4-((1-methyl-1H-pyrazol-4-yl)amino)nicotinamide]
4 nM	600 nM		CC(C)Nc1cc(-c2cnc3cc(C#N)cnn23)ncc1C(=O)NC1CCC(N(C)C)CC1 (stereo not drawn) [Example 215, 6-(7-cyanoimidazo[1,2-b]pyridazin-3-yl)-N-(4-(dimethylamino)cyclohexyl)-4-(isopropylamino)nicotinamide]
3 nM	480 nM		CC(C)(O)[C@H](F)CNC(=O)c1cnc(-c2cnc3cc(Cl)cnn23)cc1N[C@H]1CC[C@H](C(C)(C)F)CC1 [Example 175, 6-(7-chloroimidazo[1,2-b]pyridazin-3-yl)-N—((R)-2-fluoro-3-hydroxy-3-methylbutyl)-4-(((1r,4R)-4-(2-fluoropropan-2-yl)cyclohexyl)amino)nicotinamide]
3 nM	960 nM		CC(F)(F)Cn1ccc(Nc2cc(-c3cnc4cc(C#N)cnn34)ncc2C(=O)NC[C@@H](F)C(C)(C)O)n1 [Example 268, (R)-6-(7-cyanoimidazo[1,2-b]pyridazin-3-yl)-4-((1-(2,2-difluoropropyl)-1H-pyrazol-3-yl)amino)-N-(2-fluoro-3-hydroxy-3-methylbutyl)nicotinamide]
2 nM	470 nM		CC(C)(O)[C@H]1CC[C@H](NC(=O)c2cnc(-c3cnn4cc(Cl)cnc34)cc2Nc2cnn(C3CC3)c2)CC1 [Example 254, 6-(6-chloropyrazolo[1,5-a]pyrimidin-3-yl)-4-((1-cyclopropyl-1H-pyrazol-4-yl)amino)-N-((1r,4r)-4-(2-hydroxypropan-2-yl)cyclohexyl)nicotinamide]
2 nM	570 nM		CC(C)(CO)Nc1cc(-c2cnn3cc(Cl)cnc23)ncc1C(=O)NC[C@@H](F)C(C)(C)O [Example 7, (R)-6-(6-chloropyrazolo[1,5-a]pyrimidin-3-yl)-N-(2-fluoro-3-hydroxy-3-methylbutyl)-4-((1-hydroxy-2-methylpropan-2-yl)amino)nicotinamide]
